Laboratory results published in patent US10308639B2, “Phosphatidylinositol 3-kinase inhibitors” (Gilead Sciences, Inc., priority 2014, dated 2019).
Where two headings read alike, the source gives them in different places.

Assays:
Assay type in all cases: biochemical
PI3Kβ = target: T1, PI3Kβ (Homo sapiens, UniProt P42338); experiment: TR-FRET enzymatic activity assay, PI3Kβ
T1 construct: made in house

PI3Kδ = target: T2, PI3Kδ (Homo sapiens, UniProt O00329); experiment: TR-FRET enzymatic activity assay, PI3Kδ
T2 construct: made in house

PI3Kγ = target: T3, PI3Kγ (Homo sapiens, UniProt P48736); experiment: TR-FRET enzymatic activity assay, PI3Kγ; conditions: read-out: PI3Kγ IC50
T3 construct: made in house
Description: The compounds of formula (I) were characterized for their enzymatic activity against the PI3K isoforms. The activities were measured using a time-resolved fluorescence resonance energy transfer (TR-FRET) assay.

[1] = Table 2, TR-FRET, 2x Km ATP, 30 minutes at 25° C.

T1 sequence (P42338 whole entry): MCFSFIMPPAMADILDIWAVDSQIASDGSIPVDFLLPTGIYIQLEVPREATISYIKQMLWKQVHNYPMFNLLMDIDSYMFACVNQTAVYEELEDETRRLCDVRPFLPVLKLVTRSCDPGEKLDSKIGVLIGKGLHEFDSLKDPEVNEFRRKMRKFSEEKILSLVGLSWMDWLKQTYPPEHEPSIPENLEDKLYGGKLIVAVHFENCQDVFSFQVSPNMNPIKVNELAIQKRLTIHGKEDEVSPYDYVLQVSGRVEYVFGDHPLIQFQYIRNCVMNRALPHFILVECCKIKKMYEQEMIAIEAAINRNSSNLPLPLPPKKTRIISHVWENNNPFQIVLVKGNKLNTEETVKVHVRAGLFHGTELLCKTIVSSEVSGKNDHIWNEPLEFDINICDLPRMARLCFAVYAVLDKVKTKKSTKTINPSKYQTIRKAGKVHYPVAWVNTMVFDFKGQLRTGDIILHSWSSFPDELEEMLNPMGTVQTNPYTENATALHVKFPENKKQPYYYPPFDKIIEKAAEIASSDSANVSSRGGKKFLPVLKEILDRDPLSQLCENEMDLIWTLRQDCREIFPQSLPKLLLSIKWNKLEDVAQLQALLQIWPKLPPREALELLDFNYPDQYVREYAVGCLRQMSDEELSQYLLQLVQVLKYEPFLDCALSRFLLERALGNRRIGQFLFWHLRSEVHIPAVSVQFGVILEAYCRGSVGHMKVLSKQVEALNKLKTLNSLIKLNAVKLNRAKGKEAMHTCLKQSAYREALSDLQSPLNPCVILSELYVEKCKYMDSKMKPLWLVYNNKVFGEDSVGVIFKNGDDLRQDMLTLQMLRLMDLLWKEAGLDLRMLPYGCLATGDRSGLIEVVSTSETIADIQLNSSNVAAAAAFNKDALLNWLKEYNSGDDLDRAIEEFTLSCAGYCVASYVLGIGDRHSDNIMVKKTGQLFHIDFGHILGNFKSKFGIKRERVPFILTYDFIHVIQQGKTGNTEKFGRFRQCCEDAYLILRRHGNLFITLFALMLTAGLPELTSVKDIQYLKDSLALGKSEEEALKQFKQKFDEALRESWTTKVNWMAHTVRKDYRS
T1 sequence (P27986 whole entry partner): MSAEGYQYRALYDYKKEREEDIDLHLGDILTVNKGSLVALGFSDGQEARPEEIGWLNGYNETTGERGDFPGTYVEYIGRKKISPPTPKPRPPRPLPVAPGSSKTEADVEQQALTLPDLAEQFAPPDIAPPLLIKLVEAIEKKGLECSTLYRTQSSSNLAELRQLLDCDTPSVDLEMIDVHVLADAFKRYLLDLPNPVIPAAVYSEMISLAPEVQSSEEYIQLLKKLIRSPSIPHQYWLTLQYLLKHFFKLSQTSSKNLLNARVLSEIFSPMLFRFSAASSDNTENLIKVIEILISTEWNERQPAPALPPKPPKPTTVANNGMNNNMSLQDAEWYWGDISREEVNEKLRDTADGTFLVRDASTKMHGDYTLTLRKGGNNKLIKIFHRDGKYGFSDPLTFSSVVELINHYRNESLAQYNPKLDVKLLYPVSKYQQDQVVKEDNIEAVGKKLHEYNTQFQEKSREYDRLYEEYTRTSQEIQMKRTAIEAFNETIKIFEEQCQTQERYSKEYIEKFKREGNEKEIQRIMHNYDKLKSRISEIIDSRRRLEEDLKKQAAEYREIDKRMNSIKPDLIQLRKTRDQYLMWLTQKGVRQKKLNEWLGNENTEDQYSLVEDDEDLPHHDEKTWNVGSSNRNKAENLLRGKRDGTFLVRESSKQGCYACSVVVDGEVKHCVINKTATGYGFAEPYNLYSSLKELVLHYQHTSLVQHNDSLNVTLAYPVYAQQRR
T3 sequence (P48736 whole entry): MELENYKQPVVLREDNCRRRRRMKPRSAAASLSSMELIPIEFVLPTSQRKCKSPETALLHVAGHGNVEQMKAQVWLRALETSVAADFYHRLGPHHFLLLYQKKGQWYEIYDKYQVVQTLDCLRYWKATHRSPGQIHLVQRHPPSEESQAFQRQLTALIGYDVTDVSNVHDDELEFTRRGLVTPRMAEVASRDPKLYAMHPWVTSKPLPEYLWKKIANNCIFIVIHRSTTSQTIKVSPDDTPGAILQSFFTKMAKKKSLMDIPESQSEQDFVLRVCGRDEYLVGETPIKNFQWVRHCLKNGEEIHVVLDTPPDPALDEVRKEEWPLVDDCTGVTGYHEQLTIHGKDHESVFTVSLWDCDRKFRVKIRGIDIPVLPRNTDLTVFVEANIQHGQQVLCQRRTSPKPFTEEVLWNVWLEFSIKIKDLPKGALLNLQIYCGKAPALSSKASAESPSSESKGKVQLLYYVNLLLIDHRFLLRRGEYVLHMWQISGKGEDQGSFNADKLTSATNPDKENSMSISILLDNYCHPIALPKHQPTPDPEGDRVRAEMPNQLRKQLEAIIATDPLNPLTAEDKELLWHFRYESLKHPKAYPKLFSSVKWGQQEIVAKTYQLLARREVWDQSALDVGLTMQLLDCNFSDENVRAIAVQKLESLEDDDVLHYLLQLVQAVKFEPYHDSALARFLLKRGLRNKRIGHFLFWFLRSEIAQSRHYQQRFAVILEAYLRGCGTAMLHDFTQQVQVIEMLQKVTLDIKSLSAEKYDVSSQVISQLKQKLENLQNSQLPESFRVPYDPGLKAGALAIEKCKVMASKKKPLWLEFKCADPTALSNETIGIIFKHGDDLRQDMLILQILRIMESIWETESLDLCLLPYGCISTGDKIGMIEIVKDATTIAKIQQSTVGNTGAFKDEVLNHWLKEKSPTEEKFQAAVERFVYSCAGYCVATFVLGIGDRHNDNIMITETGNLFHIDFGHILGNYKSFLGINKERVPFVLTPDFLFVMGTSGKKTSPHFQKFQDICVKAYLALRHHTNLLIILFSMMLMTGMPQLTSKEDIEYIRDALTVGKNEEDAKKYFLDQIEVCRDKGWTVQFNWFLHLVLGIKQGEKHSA
T2 sequence (O00329 whole entry): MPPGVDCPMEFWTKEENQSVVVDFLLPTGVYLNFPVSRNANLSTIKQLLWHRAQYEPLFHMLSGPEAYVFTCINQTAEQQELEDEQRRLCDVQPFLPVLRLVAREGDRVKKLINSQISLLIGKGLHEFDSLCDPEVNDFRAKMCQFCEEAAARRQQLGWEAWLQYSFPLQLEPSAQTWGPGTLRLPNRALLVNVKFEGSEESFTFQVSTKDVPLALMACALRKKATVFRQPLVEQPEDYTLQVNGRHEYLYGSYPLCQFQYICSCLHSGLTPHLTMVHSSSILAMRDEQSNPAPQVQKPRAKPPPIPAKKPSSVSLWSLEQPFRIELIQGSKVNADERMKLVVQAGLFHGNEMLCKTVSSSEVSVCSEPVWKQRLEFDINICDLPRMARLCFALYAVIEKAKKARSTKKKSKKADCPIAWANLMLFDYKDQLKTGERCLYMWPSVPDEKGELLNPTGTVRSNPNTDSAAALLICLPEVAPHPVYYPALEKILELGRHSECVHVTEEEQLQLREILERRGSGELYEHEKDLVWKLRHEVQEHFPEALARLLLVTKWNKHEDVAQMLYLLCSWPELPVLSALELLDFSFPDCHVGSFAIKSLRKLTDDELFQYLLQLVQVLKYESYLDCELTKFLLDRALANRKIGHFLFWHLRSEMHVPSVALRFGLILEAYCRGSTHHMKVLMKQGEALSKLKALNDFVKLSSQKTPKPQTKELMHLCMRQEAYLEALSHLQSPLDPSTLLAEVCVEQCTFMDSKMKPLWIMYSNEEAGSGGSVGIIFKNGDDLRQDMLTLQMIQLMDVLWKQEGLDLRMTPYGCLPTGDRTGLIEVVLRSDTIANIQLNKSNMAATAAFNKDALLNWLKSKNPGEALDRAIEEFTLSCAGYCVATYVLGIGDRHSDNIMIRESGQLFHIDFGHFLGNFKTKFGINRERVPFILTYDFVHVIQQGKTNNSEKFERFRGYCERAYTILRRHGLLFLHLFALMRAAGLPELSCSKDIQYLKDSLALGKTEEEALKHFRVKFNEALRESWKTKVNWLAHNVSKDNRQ
T2 sequence (P27986 whole entry partner): as the sequence (P27986 whole entry partner) above

Compound	IC50 (PI3Kβ; [1]) [nM]	IC50 (PI3Kδ; [1]) [nM]	IC50 (PI3Kγ; [1]) [nM]	IC50 (PI3Kγ) [nM]	other results
C[C@H](Nc1nc(N)nc(N)c1C#N)c1nc2cccc(Cl)c2c(=O)n1-c1ccccc1 [(S)-2,4-diamino-6-((1-(5-chloro-4-oxo-3-phenyl-3,4-dihydroquinazolin-2-yl)ethyl)amino)pyrimidine-5-carbonitrile]					PI3Kγ/PI3Kβ IC50 ratio (PI3Kβ; ratio of IC50 values, text b271): less than 1 fold
CC[C@H](Nc1nc(N)nc(N)c1C#N)c1nc2cccc(Cl)c2c(=O)n1-c1cc[nH]n1 [Compound 1, (S)-2,4-diamino-6-((1-(5-chloro-4-oxo-3-(1H-pyrazol-3-yl)-3,4-dihydroquinazolin-2-yl)propyl)amino)pyrimidine-5-carbonitrile]	1	0.6	330		
Cc1c[nH]nc1-n1c([C@H](C)Nc2ncnc(N)c2C#N)nc2cccc(Cl)c2c1=O [Compound 3, (S)-4-amino-6-((1-(5-chloro-3-(4-methyl-1H-pyrazol-3-yl)-4-oxo-3,4-dihydroquinazolin-2-yl)ethyl)amino)pyrimidine-5-carbonitrile]	55	2	3000		
CC(C)Cc1cc(-n2c([C@H](C)Nc3ncnc(N)c3C#N)nc3cccc(Cl)c3c2=O)n[nH]1 [Compound 4, (S)-4-amino-6-((1-(5-chloro-3-(5-isobutyl-1H-pyrazol-3-yl)-4-oxo-3,4-dihydroquinazolin-2-yl)ethyl)amino)pyrimidine-5-carbonitrile]	84	7			
C[C@H](Nc1ncnc(N)c1C#N)c1nc2cccc(Cl)c2c(=O)n1-c1cc(C2CC2)[nH]n1 [Compound 5, (S)-4-amino-6-((1-(5-chloro-3-(5-cyclopropyl-1H-pyrazol-3-yl)-4-oxo-3,4-dihydroquinazolin-2-yl)ethyl)amino)pyrimidine-5-carbonitrile]	340	28		> 10000	
C[C@H](Nc1ncnc(N)c1C#N)c1nc2cccc(Cl)c2c(=O)n1-c1cc(C(F)(F)F)[nH]n1 [Compound 6, (S)-4-amino-6-((1-(5-chloro-4-oxo-3-(5-(trifluoromethyl)-1H-pyrazol-3-yl)-3,4-dihydroquinazolin-2-yl)ethyl)amino)pyrimidine-5-carbonitrile]	730	150		> 10000	
Cc1cc(-n2c([C@H](C)Nc3ncnc(N)c3C#N)nc3cccc(Cl)c3c2=O)n[nH]1 [Compound 7, (S)-4-amino-6-((1-(5-chloro-3-(5-methyl-1H-pyrazol-3-yl)-4-oxo-3,4-dihydroquinazolin-2-yl)ethyl)amino)pyrimidine-5-carbonitrile]	200	43		> 10000	
Cc1cc(-n2c([C@H](C)Nc3ncnc4scnc34)nc3cccc(Cl)c3c2=O)n[nH]1 [Compound 8, (S)-5-chloro-3-(5-methyl-1H-pyrazol-3-yl)-2-(1-(thiazolo[5,4-d]pyrimidin-7-ylamino)ethyl)quinazolin-4(3H)-one]	41	11		> 10000	
C[C@H](Nc1ncnc2occc12)c1nc2cccc(Cl)c2c(=O)n1-c1cc[nH]n1 [Compound 9, (S)-5-chloro-2-(1-(furo[2,3-d]pyrimidin-4-ylamino)ethyl)-3-(1H-pyrazol-3-yl)quinazolin-4(3H)-one]	940	140		> 10000	
Nc1nc(N)c(Cl)c(N[C@H](c2nc3cccc(F)c3c(=O)n2-c2cc[nH]n2)C2CC2)n1 [Compound 10, (S)-2-(cyclopropyl((2,6-diamino-5-chloropyrimidin-4-yl)amino)methyl)-5-fluoro-3-(1H-pyrazol-3-yl)quinazolin-4(3H)-one]	71	28		> 10000	
Nc1nc(N)c(Cl)c(N[C@H](c2nc3c(F)ccc(F)c3c(=O)n2-c2cc[nH]n2)C2CC2)n1 [Compound 11, (S)-2-(cyclopropyl((2,6-diamino-5-chloropyrimidin-4-yl)amino)methyl)-5,8-difluoro-3-(1H-pyrazol-3-yl)quinazolin-4(3H)-one]	120	44		> 10000	
Nc1nc(N)c(Cl)c(N[C@H](c2nc3c(F)cccc3c(=O)n2-c2cc[nH]n2)C2CC2)n1 [Compound 12, (S)-2-(cyclopropyl((2,6-diamino-5-chloropyrimidin-4-yl)amino)methyl)-8-fluoro-3-(1H-pyrazol-3-yl)quinazolin-4(3H)-one]	220	51		> 10000	
Nc1nc(N)c(Cl)c(N[C@H](c2nc3c(Cl)cccc3c(=O)n2-c2cc[nH]n2)C2CC2)n1 [Compound 13, (S)-8-chloro-2-(cyclopropyl((2,6-diamino-5-chloropyrimidin-4-yl)amino)methyl)-3-(1H-pyrazol-3-yl)quinazolin-4(3H)-one]	140	39		> 10000	
Nc1nc(N)c(Cl)c(N[C@H](c2nc3cccc(Cl)c3c(=O)n2-c2cc(Cl)[nH]n2)C2CC2)n1 [Compound 14, (S)-5-chloro-3-(5-chloro-1H-pyrazol-3-yl)-2-(cyclopropyl((2,6-diamino-5-chloropyrimidin-4-yl)amino)methyl)quinazolin-4(3H)-one]	350	51	7600		
C[C@H](Nc1nc(N)nc(N)c1C#N)c1nc2cccc(Cl)c2c(=O)n1-c1cn[nH]c1 [Compound 15, (S)-2,4-diamino-6-((1-(5-chloro-4-oxo-3-(1H-pyrazol-4-yl)-3,4-dihydroquinazolin-2-yl)ethyl)amino)pyrimidine-5-carbonitrile]	1	0.4	43		
N#Cc1c(N)nc(N)nc1N[C@H](c1nc2cccc(Cl)c2c(=O)n1-c1cn[nH]c1)C1CC1 [Compound 17, (S)-2,4-diamino-6-(((5-chloro-4-oxo-3-(1H-pyrazol-4-yl)-3,4-dihydroquinazolin-2-yl)(cyclopropyl)methyl)amino)pyrimidine-5-carbonitrile]	2	0.6	67		
Nc1nc(N)c(Cl)c(N[C@H](c2nc3cccc(Cl)c3c(=O)n2-c2cn[nH]c2)C2CC2)n1 [Compound 19, (S)-5-chloro-2-(cyclopropyl((2,6-diamino-5-chloropyrimidin-4-yl)amino)methyl)-3-(1H-pyrazol-4-yl)quinazolin-4(3H)-one]	32	6	1700		
CC[C@H](Nc1nc(N)nc(N)c1C#N)c1nc2cccc(Cl)c2c(=O)n1-c1cn[nH]c1 [Compound 21, (S)-2,4-diamino-6-((1-(5-chloro-4-oxo-3-(1H-pyrazol-4-yl)-3,4-dihydroquinazolin-2-yl)propyl)amino)pyrimidine-5-carbonitrile]	9	2	230		
N#Cc1c(N)nc(N)nc1N1CCC[C@H]1c1nc2cccc(Cl)c2c(=O)n1-c1cn[nH]c1 [Compound 23, (S)-2,4-diamino-6-(2-(5-chloro-4-oxo-3-(1H-pyrazol-4-yl)-3,4-dihydroquinazolin-2-yl)pyrrolidin-1-yl)pyrimidine-5-carbonitrile]	150	9	740		
N#Cc1c(N)nc(N)nc1N1CCC[C@H]1c1nc2cccc(Cl)c2c(=O)n1-c1cc[nH]n1 [Compound 24, (S)-2,4-diamino-6-(2-(5-chloro-4-oxo-3-(1H-pyrazol-3-yl)-3,4-dihydroquinazolin-2-yl)pyrrolidin-1-yl)pyrimidine-5-carbonitrile]	22	4	780		
O=c1c2c(Cl)cccc2nc([C@@H](Nc2ncnc3scnc23)C2CC2)n1-c1cn[nH]c1 [Compound 25, (S)-5-chloro-2-(cyclopropyl(thiazolo[5,4-d]pyrimidin-7-ylamino)methyl)-3-(1H-pyrazol-4-yl)quinazolin-4(3H)-one]	5	1	130		
O=c1c2c(Cl)cccc2nc([C@@H](Nc2ncnc3scnc23)C2CC2)n1-c1cc[nH]n1 [Compound 26, (S)-5-chloro-2-(cyclopropyl(thiazolo[5,4-d]pyrimidin-7-ylamino)methyl)-3-(1H-pyrazol-3-yl)quinazolin-4(3H)-one]	3	0.6	1300		
Nc1nc(N)c(Cl)c(N[C@H](c2nc3cccc(Cl)c3c(=O)n2-c2cc[nH]n2)C2CCC2)n1 [Compound 127, (S)-5-chloro-2-(cyclobutyl((2,6-diamino-5-chloropyrimidin-4-yl)amino)methyl)-3-(1H-pyrazol-3-yl)quinazolin-4(3H)-one]					IC50 (PI3Kβ; Table 2a, same assay): 49 nM; IC50 (PI3Kδ; Table 2a, same assay): 21 nM
CC(C)[C@H](Nc1nc(N)nc(N)c1Cl)c1nc2cccc(Cl)c2c(=O)n1-c1cc[nH]n1 [Compound 146, (S)-5-chloro-2-(1-((2,6-diamino-5-chloropyrimidin-4-yl)amino)-2-methylpropyl)-3-(1H-pyrazol-3-yl)quinazolin-4(3H)-one]					IC50 (PI3Kβ; Table 2a, same assay): 94 nM; IC50 (PI3Kδ; Table 2a, same assay): 25 nM
Cc1c[nH]nc1-n1c([C@@H](NC2=NC(N)=NC3=NN=C(Br)C32)C2CC2)nc2cccc(Cl)c2c1=O (stereo partly shown) [Compound 242, 2-((1 S)-((6-amino-3-bromo-3aH-pyrazolo[3,4-d]pyrimidin-4-yl)amino)(cyclopropyl)methyl)-5-chloro-3-(4-methyl-1H-pyrazol-3-yl)quinazolin-4(3H)-one]					IC50 (PI3Kβ; Table 2a, same assay): 1600 nM; IC50 (PI3Kδ; Table 2a, same assay): 220 nM
C[C@H](Nc1nc(N)nc(N)c1C#N)c1nc2cccc(Cl)c2c(=O)n1-c1ccccc1 [Compound X, (S)-2,4-diamino-6-((1-(5-chloro-4-oxo-3-phenyl-3,4-dihydroquinazolin-2-yl)ethyl)amino)pyrimidine-5-carbonitrile, reference compound]					PI3Kγ/PI3Kβ ratio (PI3Kβ; ratio of IC50 values): 0.6
